Assay results: PubChem BioAssay AID624129 (Sanford-Burnham Center for Chemical Genomics, 2012)
Calls of active or inactive are those of the source. No rule for the calls is given here.

Biological target: C-X-C chemokine receptor type 6 (Homo sapiens) (UniProt O00574)
Test: CXCR6 receptor antagonists, dose response, cell-based, beta-arrestin, DiscoveRx, APJ panel, uHTS hits (AID 624129)
Conditions: CXCR6 beta-arrestin (DiscoveRx) antagonist cell assay; for outcome: CXCR6, dose range 1; for inhibition: CXCR6, run 2, dose range 1, at 79 µM (top of the series)
[1] = CXCR6, dose range 1, mean IC50 across replicates

Sequence of C-X-C chemokine receptor type 6 (Homo sapiens) (O00574 whole entry, looked up): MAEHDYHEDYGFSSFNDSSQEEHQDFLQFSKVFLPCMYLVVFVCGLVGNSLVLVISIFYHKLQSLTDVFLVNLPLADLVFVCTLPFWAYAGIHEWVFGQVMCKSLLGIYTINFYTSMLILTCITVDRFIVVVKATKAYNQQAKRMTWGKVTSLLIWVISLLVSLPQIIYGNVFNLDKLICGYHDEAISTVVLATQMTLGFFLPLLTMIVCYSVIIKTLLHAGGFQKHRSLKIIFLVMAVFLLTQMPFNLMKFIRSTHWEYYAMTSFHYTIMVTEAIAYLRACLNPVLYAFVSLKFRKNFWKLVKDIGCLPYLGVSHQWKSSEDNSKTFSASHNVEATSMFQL

Row | SMILES | outcome | IC50 [1] | IC50 (CXCR6, run 1, dose range 2) | inhibition | IC50 (CXCR6, run 2, dose range 2)
1 | COc1cc(/C=C/C(=O)c2ccc(C)c([N+](=O)[O-])c2)cc(OC)c1O | inactive | 19.4 µM | 16.4 µM | 75.1% | 22.5 µM
2 | C=CC[n+]1c(-c2ccc(Cl)cc2Cl)csc1Nc1c(C)n(C)n(-c2ccccc2)c1=O | inactive | 40 µM | 29.2 µM | 101% | 50.8 µM
3 | CCOc1ccc(Nc2ccc([N+](=O)[O-])c3nonc23)cc1 | inactive | 38.8 µM | 33.7 µM | 81.7% | 43.9 µM
4 | COc1ccc(C(=O)/C=C/Sc2nc3ccccc3o2)cc1 | inactive | 44.8 µM | 21.7 µM | 61.3% | 67.8 µM
5 | Cc1ccccc1NC(=S)NNc1ncc(C(F)(F)F)cc1Cl | inactive | 15 µM | 16.4 µM | 83.5% | 13.7 µM
6 | COC(=O)c1cc([N+](=O)[O-])c(-n2cncn2)c([N+](=O)[O-])c1 | inactive | 16.2 µM | 13.9 µM | 113% | 18.4 µM
7 | COc1cc(/C=C(\C#N)c2nc(-c3cc4ccccc4oc3=O)cs2)ccc1O | inactive | 30.7 µM | 23.3 µM | 84.1% | 38.2 µM
8 | COc1ccc2nc(-n3c(O)c(C4=c5ccccc5=NC4=O)[nH]c3=S)sc2c1 | inactive | 30.4 µM | 26.5 µM | 109% | 34.3 µM
9 | COc1cc(/C=C/[N+](=O)[O-])ccc1OC(=O)c1cccnc1 | inactive | 25.5 µM | 19.1 µM | 108% | 31.9 µM
10 | O=[N+]([O-])c1cc(-c2ncccn2)c([N+](=O)[O-])s1 | inactive | 24 µM | 23.8 µM | 111% | 24.3 µM
11 | COc1ccc(/C=C2/CCC(CN3CCOCC3)C2=O)cc1 (stereo not given) | inactive | 14.7 µM | 14.3 µM | 112% | 15.2 µM
12 | O=C(C#Cc1cccc([N+](=O)[O-])c1)c1ccccc1 | inactive | 13.5 µM | 12.6 µM | 108% | 14.4 µM
13 | CN(C)CCCN(C(=O)CCS(=O)(=O)c1ccccc1)c1nc2cc3c(cc2s1)OCO3 | inactive | 14.9 µM | 14.3 µM | 110% | 15.5 µM
14 | COc1ccc(/C=C(/C(=O)c2cccs2)N2C=CC=CC2=C(C#N)C#N)cc1 | inactive | 19.9 µM | 20.3 µM | 109% | 19.5 µM
15 | Cn1c(=O)n(C)c2cc([N+](=O)[O-])c(N3CCN(C(=O)c4cccc(Cl)c4)CC3)cc21 | inactive | 11.2 µM | 11.3 µM | 60.7% | 11 µM
16 | O=C(COC(=O)C1CCN(S(=O)(=O)c2cccs2)CC1)c1cc2ccccc2o1 | inactive | 16.8 µM | 16.8 µM | 27.4% | > 79 µM
17 | CN(c1ccccc1)c1ccc(/C=C/[N+](=O)[O-])cc1 | inactive | 11.4 µM | 10.3 µM | 114% | 12.5 µM
18 | CCCOc1ccc(CN(CCC#N)C(=S)NC(=O)c2ccccc2)cc1 | inactive | 20 µM | 10.4 µM | 68.9% | 29.6 µM
19 | Cc1cc(C)nc(S/C=C/C(=O)c2ccccc2)n1 | inactive | 25.1 µM | 22.6 µM | 107% | 27.5 µM
20 | CCOC(=O)C1=C(C)NC2=C(C(=O)CC(c3cccs3)C2)C1c1cccs1 (stereo not given) | inactive | 24 µM | 26.3 µM | 70.4% | 21.6 µM
21 | Cc1ccc(S(=O)(=O)c2ccc([N+](=O)[O-])cn2)cc1 | inactive | 11.7 µM | 11.5 µM | 109% | 11.9 µM
22 | CCCNC(=O)c1nnsc1S(=O)(=O)c1ccc(Cl)cc1 | inactive | 14.1 µM | 13.8 µM | 112% | 14.3 µM
23 | CCc1nc2c(OCCC3CCCCC3)cccn2c1N(C)C(=O)c1ccc(C)cc1 | inactive | 18.8 µM | 17.9 µM | 111% | 19.6 µM
24 | Cc1ccc(NC(=S)NNc2ncc(C(F)(F)F)cc2Cl)cc1 | inactive | 13.5 µM | 10.4 µM | 105% | 16.6 µM

Row | SMILES | outcome | IC50 [1] | IC50 (CXCR6, run 1, dose range 2) | inhibition | IC50 (CXCR6, run 2, dose range 2)
25 | C=C1C(=O)[C@]23C[C@H]1CCC2[C@@]1(C)C(C[C@@H]3O)[C@](C)(C(=O)OC)CC[C@@H]1O (stereo not given in full) | inactive | 11.5 µM | 11.6 µM | 109% | 11.4 µM
26 | O=[N+]([O-])/C=C/c1ccc2c(ccn2Cc2ccccc2)c1 | inactive | 11.3 µM | 9.06 µM | 111% | 13.5 µM
27 | CC(=NO)C1CCC2C3CCC4=CC(=NO)CCC4(C)C3C(O)CC12C (stereo not given) | inactive | 28.9 µM | 12.5 µM | 75.2% | 45.4 µM
28 | O=C(Nc1ccccc1Oc1ccccc1)[C@@H]1O[C@H](CO)[C@H](O)[C@H](O)[C@H]1O | inactive | 14.2 µM | 12.4 µM | 99.6% | 15.9 µM
29 | Cc1cccc(NC(=S)N/N=C/c2ccc([N+](=O)[O-])s2)c1 | inactive | 12.4 µM | 9.56 µM | 87.7% | 15.2 µM
30 | COc1ccc(C(=O)N/N=C/c2cccc3cccnc23)cc1 | inactive | 13.5 µM | 12.6 µM | 60.1% | 14.5 µM
31 | C[n+]1ccc(/C=N/Nc2nc(Cl)c(C#N)c(Cl)c2Cl)cc1 | inactive | 44.8 µM | 23.6 µM | 90.5% | 66 µM
32 | Fc1ccc(NC(=S)NNc2ncc(C(F)(F)F)cc2Cl)c(F)c1 | inactive | 11.6 µM | 11.2 µM | 109% | 12 µM
33 | O=C1C=CC2C3C(=O)N(c4ccccc4)C(=O)C3C1N2Cc1ccccc1 (stereo not given) | inactive | 21.5 µM | 19.5 µM | 108% | 23.5 µM
34 | C/C(=N\NC(=S)NCCc1ccccc1)c1ccc(Cl)cc1Cl | inactive | 11.8 µM | 12.4 µM | 39.5% | 11.1 µM
35 | O=C(COc1ccc(Br)cc1Cl)NC(=S)N1CCc2ccccc21 | inactive | 17.3 µM | 14.8 µM | 94.9% | 19.7 µM
36 | COC(=O)c1ccc(NC(=O)c2nc(S(=O)(=O)Cc3cccc(C)c3)ncc2Cl)cc1 | inactive | 16.3 µM | 15.4 µM | 107% | 17.2 µM
37 | Cc1cc(O)c(-c2cc(O)c(C)cc2O)cc1O | inactive | 14 µM | 13.6 µM | 114% | 14.4 µM
38 | CCC1=NN(C(=O)c2ccc([N+](=O)[O-])cc2)C(O)(c2ccccc2)C1 (stereo not given) | inactive | 44.8 µM | 25.2 µM | 91.7% | 64.4 µM
39 | COC(=O)c1ccc(/C=C(\C#N)C(=O)NC(C)c2ccccc2)cc1 (stereo not given) | inactive | 14.1 µM | 13.6 µM | 112% | 14.6 µM
40 | CCOC(=O)C1CCCN(c2c(C(=O)c3ccccc3)cnc3ccc(OC)cc23)C1 (stereo not given) | inactive | 14.4 µM | 17.9 µM | 99.5% | 10.9 µM
41 | CCOC(=O)c1cc([N+](=O)[O-])c([N+](=O)[O-])cc1NC(C)=O | inactive | 15.1 µM | 14.8 µM | 110% | 15.5 µM
42 | O=C1c2cccc3c([N+](=O)[O-])ccc(c23)C(=O)N1Cc1cccnc1 | inactive | 27.8 µM | 25 µM | 110% | 30.5 µM
43 | CCN(CC)CCn1c(N)c(S(=O)(=O)c2ccccc2)c2nc3ccccc3nc21 | inactive | 15.9 µM | 13.2 µM | 99.2% | 18.5 µM
44 | COC(=O)C1=C(C(=O)OC)C2OC1c1cc3ccccc3cc12 | inactive | 14.5 µM | 12.3 µM | 112% | 16.7 µM
45 | N#C/C(=C/c1ccc(-c2ccc([N+](=O)[O-])cc2)o1)C(=O)Nc1nc(-c2cccs2)cs1 | inactive | 38.1 µM | 44.7 µM | 90.2% | 31.5 µM
46 | CC1=C(CO)C(=O)OC([C@@H](C)C2CC[C@H]3C4C[C@H]5O[C@]56[C@@H](O)C=CC(=O)[C@]6(C)C4CC[C@]23C)C1 (stereo not given in full) | inactive | 14 µM | 12.2 µM | 112% | 15.8 µM
47 | Cc1ccc(NS(=O)(=O)c2cc([N+](=O)[O-])ccc2NNC(=S)Nc2cc(C)ccc2C)c(C)c1 | inactive | 33 µM | 21.2 µM | 114% | 44.8 µM
48 | COc1ccc(-n2nnnc2S(=O)(=O)CC(=O)N2CCCCC2)cc1 | inactive | 19 µM | 19.3 µM | 97.5% | 18.8 µM
